Test results taken from paper PMC4393269, “Carvacrol Codrugs: A New Approach in the Antimicrobial Plan” (PLoS ONE, 2015).
Like-named read-outs stand apart in the source and are kept apart here.

Tests used:
C. albicans ATCC 10231 [1] = assay: Transmission electron microscopy; assay type: cell-based; conditions: 12.5 mg/mL for 3 h
Description: (§1) For transmission electron microscopy, microrganisms were fixed with 2.5% glutaraldehyde in 0.1 M cacodylate buffer, postfixed with 1% OsO4, dehydrated in graded ethanol and embedded in Epon 812. Ultrathin sections (60 to 80 nm) were then mounted on 200-mesh copper grids and stained with uranyl acetate and lead citrate for ultrastructural observation. Sections were photographed using a Philips 268 D electron microscope (FEI).

S. aureus ATCC 29213 [2] = assay: Transmission electron microscopy; assay type: cell-based; conditions: 12.5 mg/mL for 3 h
Description: as §1

E. coli ATCC 8739 [3] = assay: Transmission electron microscopy; assay type: cell-based; conditions: 12.5 mg/mL for 3 h
Description: as §1

[4] = Drug stability in simulated gastric fluid with pepsin; assay type: in vitro ADME; conditions: 37°C, read-out: t½ (converted)
Method: (§2) The HPLC system consisted of a Waters 600 HPLC pump (Waters Corporation, Milford, MA, USA), equipped with a Waters 2996 photodiode array detector. The column was a Kinetex RP-C8 column (3.0 x 150 mm, 5 μm). The mobile phase consisted of 0.1% TFA in acetonitrile/0.1% TFA in 95% H2O and 5% acetonitrile 50:50, under isocratic conditions at a flow rate of 1 mL/min. The UV detector was set at a length of 220 nm.
(§3) To assess enzymatic stability, hydrochloric buffer with pepsin (10 or 40 mg/mL) and phosphate buffer with pancreatin (10 or 40 mg/mL) were used. Buffer solution (250 μL) was preincubated at 37°C and 50 μL of drug stock solution (50 μM in ethanol and FASSIF 1:9) were added and shaken at 37°C and 650 rpm. Samples of 100 μL were withdrawn at various times and 100 µL of ice-cold acetonitrile containing 0.5 v/v% formic acid were added to stop enzymatic activity. Samples were vortexed and centrifuged at 2°C and 10000 rpm for 10 min. The drug content in the supernatant was analyzed by HPLC.

pepsin = assay: as above; assay type: in vitro ADME; conditions: for kobs: 37°C
Method: as §2, §3

P. aeruginosa ATCC 9027 = assay: Antibiofilm assay on established biofilm (BIC/BEC); assay type: cell-based
Method: (§4) The efficacy on established biofilm was evaluated by determining Biofilm Inhibitory Concentration (BIC) and Biofilm Eradication Concentration (BEC) according to the method described by Johnson et al. with some modifications. Bacterial suspensions, grown in Tryptic soy broth supplemented with 0.5% (v/v) glucose at logarithmic phase, as well as C. albicans grown in RPMI 1640 plus 2% glucose, were incubated on flat-bottomed microtiter plates at a concentration of 5 x 10^5 CFU/mL. After 24 h of incubation at 37°C, the planktonic cells were gently removed and wells were washed with sterile phosphate-buffered saline solution (PBS) pH 7.3 and filled with carvacrol, carvacrol codrug 4, Ac-Cys(Allyl)-OH with dilutions ranging from the MIC values to a maximum concentration of 50 mg/mL. The OD600 was measured at time 0 and after incubation for 24 h at 37°C. The BIC values were determined as the lowest concentrations where no growth occurred in the supernatant fluid, confirmed by no increase in optical density compared with the initial reading. The BEC values were determined as the lowest concentrations at which no bacterial growth occurred on Tryptic soy agar for bacteria and on Sabouraud agar for C. albicans. Data were obtained from at least three independent experiments performed in duplicate.

C. albicans ATCC 10231 [5] = assay: Antibiofilm assay on established biofilm (BIC/BEC); assay type: cell-based
Method: as §4

S. aureus ATCC 29213 [6] = assay: Antibiofilm assay on established biofilm (BIC/BEC); assay type: cell-based; conditions: S. aureus ATCC 29213 established biofilm
Method: as §4

[7] = test system: S. epidermidis ATCC 35984; assay: Antibiofilm assay on established biofilm (BIC/BEC); assay type: cell-based
Method: as §4

E. coli ATCC 8739 [8] = assay: Antibiofilm assay on established biofilm (BIC/BEC); assay type: cell-based
Method: as §4

[9] = Kinetics of enzymatic hydrolysis in plasma; assay type: in vitro ADME; conditions: 37°C; for half-life at 40 µg/mL: pH 7.4, read-out: t½ (converted)
Method: as §2
The enzymatic hydrolysis was evaluated in human and rat plasma. […] A volume of 200 μL of this solution was added with pre-heated (37°C) plasma fractions (4 mL) previously diluted with 0.02 M phosphate buffer (pH 7.4) to give a final volume of 5 mL (80% plasma). Aliquots (100 μL) were taken at various times and deproteinized by mixing with 200 μL of 0.01 M HCl in methanol. After centrifugation for 5 min at 5000 × g, 10 μL of the supernatant layer were analysed by chromatography as described above. The amounts of remaining intact compound were plotted as a function of incubation time.

**Q.** Which results are given for C=CCSC[C@H](NC(C)=O)C(=O)Oc1cc(C(C)C)ccc1C [codrug 4, N-Ac-Cys(Allyl)-CAR]?
**A.** cell morphology by TEM (C. albicans ATCC 10231 [1]): disintegration of the membranes; cell morphology by TEM (S. aureus ATCC 29213 [2]): induced abnormal septum formation with irregular features; cell morphology by TEM (E. coli ATCC 8739 [3]): alteration of outer membrane; half-life at 8.3 µM ([4]; simulated gastric fluid with pepsin 10 mg/mL, pH 1.3, SGF pH 1.3, pepsin 10 mg/mL): > 74 h; half-life at 8.3 µM ([4]; simulated gastric fluid with pepsin 40 mg/mL, pH 1.3, SGF pH 1.3, pepsin 40 mg/mL): 5.79 h; kobs (pepsin; SGF pH 1.3, pepsin 10 mg/mL): 0.009 (± 0.001) h^-1; kobs (pepsin; SGF pH 1.3, pepsin 40 mg/mL): 0.119 (± 0.003) h^-1; stability at pH 1.3 respect to pH 7.4 (pepsin; in the presence of pepsin and pancreatin (10 mg/mL)): 13 fold; BEC as multiple of MIC (P. aeruginosa ATCC 9027; P. aeruginosa ATCC 9027): 2MIC; BEC (P. aeruginosa ATCC 9027; P. aeruginosa ATCC 9027 established biofilm): 10 mg/mL; BIC (P. aeruginosa ATCC 9027; P. aeruginosa ATCC 9027 established biofilm, 24 h): 5 mg/mL; BEC as multiple of MIC (C. albicans ATCC 10231 [5]; C. albicans ATCC 10231): 8MIC; BIC as multiple of MIC (C. albicans ATCC 10231 [5]; C. albicans ATCC 10231): 8MIC; BEC (C. albicans ATCC 10231 [5]; C. albicans ATCC 10231 established biofilm): 10 mg/mL; BIC (C. albicans ATCC 10231 [5]; C. albicans ATCC 10231 established biofilm, 24 h): 10 mg/mL; BEC (S. aureus ATCC 29213 [6]): 10 mg/mL; BIC (S. aureus ATCC 29213 [6]; 24 h): 5 mg/mL; BEC as multiple of MIC ([7]; S. epidermidis ATCC 35984): 8MIC; BIC as multiple of MIC ([7]; S. epidermidis ATCC 35984): 2MIC; BEC ([7]; S. epidermidis ATCC 35984 established biofilm): 20 mg/mL; BIC ([7]; S. epidermidis ATCC 35984 established biofilm, 24 h): 5 mg/mL; BEC as multiple of MIC (E. coli ATCC 8739 [8]; E. coli ATCC 8739): 16MIC; BIC as multiple of MIC (E. coli ATCC 8739 [8]; E. coli ATCC 8739): 8MIC; BEC (E. coli ATCC 8739 [8]; E. coli ATCC 8739 established biofilm): 40 mg/mL; BIC (E. coli ATCC 8739 [8]; E. coli ATCC 8739 established biofilm, 24 h): 20 mg/mL; kobs ([9]; 80% human plasma): 1.38 (± 0.03) h^-1; kobs ([9]; 80% rat plasma): 1.38 (± 0.05) h^-1; half-life at 40 µg/mL ([9]; 80% human plasma): 30 min; half-life at 40 µg/mL ([9]; 80% rat plasma): 30 min
